Legend:
AAD-1 cotton [1] = assay: Crop injury over time on AAD-1 cotton, field experiment near Tifton, Ga.; assay type: in vivo, Cotton (Gossypium spp.); conditions: n = 3 plots
Procedure: (§1) By “injury” it is meant the percentage of foliage that is epinastic (has leaf droop, leaf rolling, petiole curvature) as visually assessed by one skilled in the art. The reduced injury from 2,4-DB relative to 2,4-D is observable within minutes after application of these herbicides and continues to be observable for an extended time period thereafter, such as from 2 hrs after application to 30 days after application, including 3 hours after application to 19 days after application and further including 6 hours after application to 24 hours after application.
(§2) To evaluate the tolerance of AAD-1-cotton plants to the effects of 2,4-DB and 2,4-D herbicide compounds, the herbicides Butyrac 200 (2,4-DB) and Weedar 64 (2,4-D) were applied individually by broadcast spraying over AAD-1-cotton plants in two field experiments.
Another experiment was conducted at one field location at the University of Georgia Ponder Farm, near Tifton, Ga. The experimental design was three replications with plots in randomized complete blocks. Each plot had AAD-1-cotton plants in one row that was 25 feet in length. Cotton plants were targeted at […] in height (6-leaf stage) for single-application treatment. Treatments consisted of Butyrac 200 (2,4-DB) applied at 280, 560, 1120, and 2240 g ae ha; and Weedar 64 (2,4-D) applied at 560 and 1120 g ae/ha. AAD-1-cotton plants were visually assessed for the percentage of foliage showing herbicide-related injury on days—0, 1, 2, 19, and 45 after application.

AMAPA = assay: Weed control in AAD-1 cotton field plots; assay type: in vivo, Amaranthus palmeri; conditions: 1120 g ae/ha, 3 WAA (maximum control), n = 36 plots
Procedure: (§3) An experiment to compare the efficacies of 2,4-DB and 2,4-D to control weeds in AAD-1 cotton was conducted at nine field sites located near Greenville, Miss. (3 locations); Chula, Ga.; Macon County, Ga.; Attapulgus, Ga.; Memphis, Tenn.; Newport, Ark.; and Fresno, Calif. The experimental design was four replications per site with treatment plots in randomized complete blocks. Each plot had AAD-1-cotton plants in two rows that were 20 feet in length. Weed and cotton plants were targeted at two to six inches in height for a single-application treatment. Treatments consisted of Butyrac 200 (2,4-DB) and Weedar 64 (2,4-D) applied to plots at 560, 840, and 1120 g ae/ha. Weed species were visually assessed once per week for three weeks after herbicide application for the percentage plants (0-100%, where 0 represents no activity or a control and 100% represents death of the target plant) killed or showing severe herbicide-related injury.
(§4) For nearly all targeted species and for each week of measurement, greater levels of control were obtained with increasing application rates of 2,4-DB or 2,4-D, with the greatest control from 1120 g ae/ha. Therefore, based on efficacy, 1120 g ae/ha is the preferred application rate of the three rates tested to control weeds in AAD-1 cotton. At 1120 g ae/ha, control was classified as either ≦80%, >80%, or >90% of weed plants killed or seriously injured.

AAD-1 cotton [2] = assay: Crop injury on AAD-1 cotton, field experiment at four locations; assay type: in vivo, Cotton (Gossypium spp.); conditions: epinastic foliage per plot, n = 16 plots
Procedure: as §1, §2
One experiment was conducted at four field locations near Greenville, Miss.; Brinson, Ga.; Memphis, Tenn.; and Fresno, Calif. The experimental design was four replications per site with treatment plots in randomized complete blocks. Each plot had AAD-1-cotton plants in two rows that were 20 feet in length. Cotton plants were targeted at two to four inches in height for single-application treatment. Treatments consisted of Butyrac 200 (2,4-DB) applied at 560, 840, 1120, 1680, and 2240 g ae/ha; and Weedar 64 (2,4-D) applied at 840 and 1120 g ae/ha. AAD-1-cotton plants were visually assessed for the percentage of foliage showing herbicide-related injury one day after application.

AAD-12 cotton = assay: Crop injury over time on AAD-12 cotton, greenhouse experiment; assay type: in vivo, Cotton (Gossypium spp.); conditions: n = 4 plants
Procedure: as §1
To evaluate the tolerance of AAD-12-cotton plants to the effects of 2,4-DB and 2,4-D herbicide compounds, the herbicides DB Straight (2,4-DB) and Weedar 64 (2,4-D) were applied individually by spraying over AAD-12-cotton plants in one greenhouse experiment. The four treatments consisted of two application rates, 1120 and 2240 g ae/ha, for each of the two herbicides. The experimental design was four replications of single AAD-12-cotton plants per treatment. The plants were grown in pots. Treatments were not randomized. Plants were at the 3- to 4-leaf stage when sprayed. The sprayed AAD-12-cotton plants were visually assessed for the percentage of foliage showing herbicide-related injury on days-0, 1, 2, 4, and 12 after application.

IAQTA = assay: Weed control in AAD-1 cotton field plots; assay type: in vivo; conditions: 1120 g ae/ha, 2 WAA (maximum control), n = 36 plots
Procedure: as §3, §4

ACNHI = assay: Weed control in AAD-1 cotton field plots; assay type: in vivo; conditions: 1120 g ae/ha, 2 WAA (maximum control), n = 36 plots
Procedure: as §3, §4

AMARE = assay: Weed control in AAD-1 cotton field plots; assay type: in vivo; conditions: 1120 g ae/ha, 3 WAA (maximum control), n = 36 plots
Procedure: as §3, §4

CASOB = assay: Weed control in AAD-1 cotton field plots; assay type: in vivo; conditions: 1120 g ae/ha, 3 WAA (maximum control), n = 36 plots
Procedure: as §3, §4

SOLNI = assay: Weed control in AAD-1 cotton field plots; assay type: in vivo; conditions: 1120 g ae/ha, 3 WAA (maximum control), n = 36 plots
Procedure: as §3, §4

ACCOS = assay: Weed control in AAD-1 cotton field plots; assay type: in vivo; conditions: 1120 g ae/ha, 3 WAA (maximum control), n = 36 plots
Procedure: as §3, §4

SIDSP = assay: Weed control in AAD-1 cotton field plots; assay type: in vivo; conditions: 1120 g ae/ha, 3 WAA (maximum control), n = 36 plots
Procedure: as §3, §4

SEBEX = assay: Weed control in AAD-1 cotton field plots; assay type: in vivo; conditions: 1120 g ae/ha, 3 WAA (maximum control), n = 36 plots
Procedure: as §3, §4

IPOHG = assay: Weed control in AAD-1 cotton field plots; assay type: in vivo; conditions: 1120 g ae/ha, 2 WAA (maximum control), n = 36 plots
Procedure: as §3, §4

RCHSC = assay: Weed control in AAD-1 cotton field plots; assay type: in vivo; conditions: 1120 g ae/ha, 3 WAA (maximum control), n = 36 plots
Procedure: as §3, §4

IPOSS = assay: Weed control in AAD-1 cotton field plots; assay type: in vivo; conditions: 1120 g ae/ha, 3 WAA (maximum control), n = 36 plots
Procedure: as §3, §4

AMASS = assay: Weed control in AAD-1 cotton field plots; assay type: in vivo, All Amaranthus species excluding AMAPA; conditions: 1120 g ae/ha, 3 WAA (maximum control), n = 36 plots
Procedure: as §3, §4

O=C(O)CCCOc1ccc(Cl)cc1Cl [2,4-DB, 4-(2,4-dichlorophenoxy) butyric acid]
Mean Injury (%) (AAD-1 cotton [1]; 280 g ae/ha, 0 DAA): 1.7 a %
Mean Injury (%) (AAD-1 cotton [1]; 280 g ae/ha, 1 DAA): 0.7 a %
Mean Injury (%) (AAD-1 cotton [1]; 280 g ae/ha, 2 DAA): 1.3 ab %
Mean Injury (%) (AAD-1 cotton [1]; 280 g ae/ha, 19 DAA): 0.0 a %
Mean Injury (%) (AAD-1 cotton [1]; 280 g ae/ha, 45 DAA): 0.0 a %
Mean Injury (%) (AAD-1 cotton [1]; 560 g ae/ha, 0 DAA): 2.7 a %
Mean Injury (%) (AAD-1 cotton [1]; 560 g ae/ha, 1 DAA): 0.0 a %
Mean Injury (%) (AAD-1 cotton [1]; 560 g ae/ha, 2 DAA): 0.7 a %
Mean Injury (%) (AAD-1 cotton [1]; 560 g ae/ha, 19 DAA): 0.7 a %
Mean Injury (%) (AAD-1 cotton [1]; 560 g ae/ha, 45 DAA): 0.0 a %
Mean Injury (%) (AAD-1 cotton [1]; 1120 g ae/ha, 0 DAA): 5.0 ab %
Mean Injury (%) (AAD-1 cotton [1]; 1120 g ae/ha, 1 DAA): 0.7 a %
Mean Injury (%) (AAD-1 cotton [1]; 1120 g ae/ha, 2 DAA): 1.3 ab %
Mean Injury (%) (AAD-1 cotton [1]; 1120 g ae/ha, 19 DAA): 0.0 a %
Mean Injury (%) (AAD-1 cotton [1]; 1120 g ae/ha, 45 DAA): 1.7 a %
Mean Injury (%) (AAD-1 cotton [1]; 2240 g ae/ha, 0 DAA): 9.3 b %
Mean Injury (%) (AAD-1 cotton [1]; 2240 g ae/ha, 1 DAA): 2.0 a %
Mean Injury (%) (AAD-1 cotton [1]; 2240 g ae/ha, 2 DAA): 3.3 abc %
Mean Injury (%) (AAD-1 cotton [1]; 2240 g ae/ha, 19 DAA): 0.7 a %
Mean Injury (%) (AAD-1 cotton [1]; 2240 g ae/ha, 45 DAA): 0.0 a %
Percentage Control of Target Weeds (AMAPA): 81%
Mean Injury 1 DAA, Injury (%) (AAD-1 cotton [2]; 560 g ae/ha post-emergence): 2.3%
Mean Injury 1 DAA, Injury (%) (AAD-1 cotton [2]; 840 g ae/ha post-emergence): 4.1%
Mean Injury 1 DAA, Injury (%) (AAD-1 cotton [2]; 1120 g ae/ha post-emergence): 2.8%
Mean Injury 1 DAA, Injury (%) (AAD-1 cotton [2]; 1680 g ae/ha post-emergence): 4.5%
Mean Injury 1 DAA, Injury (%) (AAD-1 cotton [2]; 2240 g ae/ha post-emergence): 6.3%
Mean Injury (%) (AAD-12 cotton; 1120 g ae/ha, 0 DAA): 0.0 a %
Mean Injury (%) (AAD-12 cotton; 1120 g ae/ha, 1 DAA): 1.8 ab %
Mean Injury (%) (AAD-12 cotton; 1120 g ae/ha, 2 DAA): 0.0 a %
Mean Injury (%) (AAD-12 cotton; 1120 g ae/ha, 4 DAA): 1.0 b %
Mean Injury (%) (AAD-12 cotton; 1120 g ae/ha, 12 DAA): 1.0 a %
Mean Injury (%) (AAD-12 cotton; 2240 g ae/ha, 0 DAA): 0.0 a %
Mean Injury (%) (AAD-12 cotton; 2240 g ae/ha, 1 DAA): 0.0 b %
Mean Injury (%) (AAD-12 cotton; 2240 g ae/ha, 2 DAA): 0.0 a %
Mean Injury (%) (AAD-12 cotton; 2240 g ae/ha, 4 DAA): 0.5 b %
Mean Injury (%) (AAD-12 cotton; 2240 g ae/ha, 12 DAA): 3.3 a %
Percentage Control of Target Weeds (IAQTA): 99%
Percentage Control of Target Weeds (ACNHI): 99%
Percentage Control of Target Weeds (AMARE): 89%
Percentage Control of Target Weeds (CASOB): 100%
Percentage Control of Target Weeds (SOLNI): 89%
Percentage Control of Target Weeds (ACCOS): 88%
Percentage Control of Target Weeds (SIDSP): 84%
Percentage Control of Target Weeds (SEBEX): 89%
Percentage Control of Target Weeds (IPOHG): 100%
Percentage Control of Target Weeds (RCHSC): 99%
Percentage Control of Target Weeds (IPOSS): 99%
Percentage Control of Target Weeds (AMASS): 77%

O=C(O)COc1ccc(Cl)cc1Cl [2,4-D]
Mean Injury (%) (AAD-1 cotton [1]; 560 g ae/ha, 0 DAA): 6.7 ab %
Mean Injury (%) (AAD-1 cotton [1]; 560 g ae/ha, 1 DAA): 6.7 b %
Mean Injury (%) (AAD-1 cotton [1]; 560 g ae/ha, 2 DAA): 4.0 bc %
Mean Injury (%) (AAD-1 cotton [1]; 560 g ae/ha, 19 DAA): 1.7 a %
Mean Injury (%) (AAD-1 cotton [1]; 560 g ae/ha, 45 DAA): 3.3 a %
Mean Injury (%) (AAD-1 cotton [1]; 1120 g ae/ha, 0 DAA): 23.3 c %
Mean Injury (%) (AAD-1 cotton [1]; 1120 g ae/ha, 1 DAA): 14.0 c %
Mean Injury (%) (AAD-1 cotton [1]; 1120 g ae/ha, 2 DAA): 4.7 c %
Mean Injury (%) (AAD-1 cotton [1]; 1120 g ae/ha, 19 DAA): 5.0 b %
Mean Injury (%) (AAD-1 cotton [1]; 1120 g ae/ha, 45 DAA): 2.3 a %
Percentage Control of Target Weeds (AMAPA): 89%
Mean Injury 1 DAA, Injury (%) (AAD-1 cotton [2]; 840 g ae/ha post-emergence): 7.4%
Mean Injury 1 DAA, Injury (%) (AAD-1 cotton [2]; 1120 g ae/ha post-emergence): 13.0%
Mean Injury (%) (AAD-12 cotton; 1120 g ae/ha, 0 DAA): 0.5 a %
Mean Injury (%) (AAD-12 cotton; 1120 g ae/ha, 1 DAA): 2.3 ab %
Mean Injury (%) (AAD-12 cotton; 1120 g ae/ha, 2 DAA): 3.0 a %
Mean Injury (%) (AAD-12 cotton; 1120 g ae/ha, 4 DAA): 3.0 b %
Mean Injury (%) (AAD-12 cotton; 1120 g ae/ha, 12 DAA): 3.0 a %
Mean Injury (%) (AAD-12 cotton; 2240 g ae/ha, 0 DAA): 1.3 a %
Mean Injury (%) (AAD-12 cotton; 2240 g ae/ha, 1 DAA): 4.3 a %
Mean Injury (%) (AAD-12 cotton; 2240 g ae/ha, 2 DAA): 3.8 a %
Mean Injury (%) (AAD-12 cotton; 2240 g ae/ha, 4 DAA): 6.8 a %
Mean Injury (%) (AAD-12 cotton; 2240 g ae/ha, 12 DAA): 3.0 a %
Percentage Control of Target Weeds (IAQTA): 99%
Percentage Control of Target Weeds (ACNHI): 99%
Percentage Control of Target Weeds (AMARE): 93%
Percentage Control of Target Weeds (CASOB): 98%
Percentage Control of Target Weeds (SOLNI): 93%
Percentage Control of Target Weeds (ACCOS): 90%
Percentage Control of Target Weeds (SIDSP): 89%
Percentage Control of Target Weeds (SEBEX): 88%
Percentage Control of Target Weeds (IPOHG): 100%
Percentage Control of Target Weeds (RCHSC): 97%
Percentage Control of Target Weeds (IPOSS): 99%
Percentage Control of Target Weeds (AMASS): 92%
